# Source: patent US20050197350A1, “Novel quinoline, tetrahydroquinazoline, and pyrimidine derivatives and methods of treatment related to the use thereof” (TAISHO PHARMACEUTICAL CO., LTD., priority 2003, published 2005)
# Tested on: MCH receptors
# Test: MCH receptor activity class (method not given)
# Details: class by percent of control at 10^-7 M or IC50
row,SMILES,class
1,CN(C)c1nc(N[C@H]2CC[C@@H](CNCc3ccccc3OC(F)(F)F)CC2)nc2c1CCCC2 [compound 1410],3 (Class 3 The value of percent of control at 10^−7 M was more than 60% or the value of IC50 was more than 200 nM.)
2,CCOc1ccc(OCC)c(CNC[C@H]2CC[C@@H](Nc3nc4c(c(N(C)C)n3)CCCC4)CC2)c1 [compound 1411],1 (Class 1: The value of percent of control at 10^−7 M was less than 40% or the value of IC50 was less than 50 nM.)
3,CCOc1ccc(CNC[C@H]2CC[C@@H](Nc3nc4c(c(N(C)C)n3)CCCC4)CC2)c(OCC)c1 [compound 1412],1 (Class 1: The value of percent of control at 10^−7 M was less than 40% or the value of IC50 was less than 50 nM.)
4,COc1c(Br)cc(Br)cc1CNC[C@H]1CC[C@@H](Nc2nc3c(c(N(C)C)n2)CCCC3)CC1 [compound 1413],1 (Class 1: The value of percent of control at 10^−7 M was less than 40% or the value of IC50 was less than 50 nM.)
5,CN(C)c1nc(N[C@H]2CC[C@@H](CNCc3ccccc3OC(F)F)CC2)nc2c1CCCC2 [compound 1414],3 (Class 3 The value of percent of control at 10^−7 M was more than 60% or the value of IC50 was more than 200 nM.)
6,COc1ccc(F)cc1CNC[C@H]1CC[C@@H](Nc2nc3c(c(N(C)C)n2)CCCC3)CC1 [compound 1415],3 (Class 3 The value of percent of control at 10^−7 M was more than 60% or the value of IC50 was more than 200 nM.)
7,COc1cc(OC)c(OC)cc1CNC[C@H]1CC[C@@H](Nc2nc3c(c(N(C)C)n2)CCCC3)CC1 [compound 1417],1 (Class 1: The value of percent of control at 10^−7 M was less than 40% or the value of IC50 was less than 50 nM.)
8,COc1cccc(CNC[C@H]2CC[C@@H](Nc3nc4c(c(N(C)C)n3)CCCC4)CC2)c1OC [compound 1418],3 (Class 3 The value of percent of control at 10^−7 M was more than 60% or the value of IC50 was more than 200 nM.)
9,C=CCOc1ccccc1CNC[C@H]1CC[C@@H](Nc2nc3c(c(N(C)C)n2)CCCC3)CC1 [compound 1419],3 (Class 3 The value of percent of control at 10^−7 M was more than 60% or the value of IC50 was more than 200 nM.)
10,CN(C)c1nc(N[C@H]2CC[C@@H](CNCc3csc4ccccc34)CC2)nc2c1CCCC2 [compound 1420],3 (Class 3 The value of percent of control at 10^−7 M was more than 60% or the value of IC50 was more than 200 nM.)
11,CN(C)c1nc(N[C@H]2CC[C@@H](CNCc3cn(C)c4ccccc34)CC2)nc2c1CCCC2 [compound 1421],3 (Class 3 The value of percent of control at 10^−7 M was more than 60% or the value of IC50 was more than 200 nM.)
12,Cc1ccc(CNC[C@H]2CC[C@@H](Nc3nc4c(c(N(C)C)n3)CCCC4)CC2)s1 [compound 1422],3 (Class 3 The value of percent of control at 10^−7 M was more than 60% or the value of IC50 was more than 200 nM.)
13,Cc1cc(C)c(CNC[C@H]2CC[C@@H](Nc3nc4c(c(N(C)C)n3)CCCC4)CC2)c(C)c1 [compound 1423],3 (Class 3 The value of percent of control at 10^−7 M was more than 60% or the value of IC50 was more than 200 nM.)
14,CN(C)c1nc(N[C@H]2CC[C@@H](CNCc3ccc4c(c3)OCO4)CC2)nc2c1CCCC2 [compound 1424],3 (Class 3 The value of percent of control at 10^−7 M was more than 60% or the value of IC50 was more than 200 nM.)
15,CN(C)c1nc(N[C@H]2CC[C@@H](CNCc3ccsc3)CC2)nc2c1CCCC2 [compound 1425],3 (Class 3 The value of percent of control at 10^−7 M was more than 60% or the value of IC50 was more than 200 nM.)
16,Cc1cccc(CNC[C@H]2CC[C@@H](Nc3nc4c(c(N(C)C)n3)CCCC4)CC2)c1 [compound 1426],3 (Class 3 The value of percent of control at 10^−7 M was more than 60% or the value of IC50 was more than 200 nM.)
17,Cc1ccccc1CNC[C@H]1CC[C@@H](Nc2nc3c(c(N(C)C)n2)CCCC3)CC1 [compound 1427],3 (Class 3 The value of percent of control at 10^−7 M was more than 60% or the value of IC50 was more than 200 nM.)
